In patent publication US20240269139A1, “COMPOUNDS FOR TARGETED PROTEIN DEGRADATION OF KINASES” (DANA-FARBER CANCER INSTITUTE, INC., priority 2020, published 2024):
Where “and” joins values, the source holds several entries; their conditions need not be identical. Identical values can stand only once. Like-named read-outs stand apart in the source and are kept apart here.

Legend:
Type in all cases: cell-based
[1] = molecular target: protein kinases (human kinome) (Homo sapiens, UniProt P50613); conditions: for logFC: CDK7 (P50613) protein abundance, degrader vs DMSO, down; for logFC CDK7: CDK7 P50613
[2] = molecular target: protein kinases (human kinome) (Homo sapiens, UniProt Q9NYV4)
[3] = molecular target: protein kinases (human kinome) (Homo sapiens, UniProt Q9HBH9); conditions: for logFC MKNK2 (Q9HBH9-1): direction down; for logFC: MKNK2 (Q9HBH9-1)
[4] = molecular target: T1, protein kinases (human kinome) (Homo sapiens, UniProt O94768); conditions: for logFC STK17B (O94768): direction down; for logFC: STK17B (O94768)
T1 sequence (O94768 1-372): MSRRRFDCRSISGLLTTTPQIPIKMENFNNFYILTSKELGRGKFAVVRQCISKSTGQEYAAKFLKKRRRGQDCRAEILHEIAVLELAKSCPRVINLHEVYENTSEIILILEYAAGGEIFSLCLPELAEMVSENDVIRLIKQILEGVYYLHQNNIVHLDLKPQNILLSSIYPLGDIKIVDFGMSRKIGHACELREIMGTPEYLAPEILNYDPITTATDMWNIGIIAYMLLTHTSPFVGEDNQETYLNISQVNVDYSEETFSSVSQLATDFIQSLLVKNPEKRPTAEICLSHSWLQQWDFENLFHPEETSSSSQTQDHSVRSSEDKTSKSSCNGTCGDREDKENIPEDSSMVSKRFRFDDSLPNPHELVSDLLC

[5] = molecular target: protein kinases (human kinome) (Homo sapiens, UniProt Q00537); conditions: for logFC of CDK17: Accession Q00537; for logFC CDK17 (Q00537): direction of change down
[6] = molecular target: protein kinases (human kinome) (Homo sapiens, UniProt P41240); conditions: for logFC of CSK: Accession P41240; for logFC CSK: CSK (P41240), down
[7] = molecular target: protein kinases (human kinome) (Homo sapiens, UniProt Q15119); conditions: experiment wp137
[8] = molecular target: protein kinases (human kinome) (Homo sapiens, UniProt P45984); conditions: MAPK9 P45984-1; experiment wp146
[9] = Accession Q9NYV4-1, experiment wp131
[10] = CDK12 (Q9NYV4-1), experiment wp131
[11] = Accession Q9NYV4-1, experiment wp016
[12] = CDK12 (Q9NYV4-1), experiment wp016
[13] = Accession Q9NYV4-1, experiment wp146
[14] = CDK12 (Q9NYV4-1), experiment wp146

protein kinases (human kinome) (Homo sapiens, UniProt Q00537), sequence (Q00537 whole entry): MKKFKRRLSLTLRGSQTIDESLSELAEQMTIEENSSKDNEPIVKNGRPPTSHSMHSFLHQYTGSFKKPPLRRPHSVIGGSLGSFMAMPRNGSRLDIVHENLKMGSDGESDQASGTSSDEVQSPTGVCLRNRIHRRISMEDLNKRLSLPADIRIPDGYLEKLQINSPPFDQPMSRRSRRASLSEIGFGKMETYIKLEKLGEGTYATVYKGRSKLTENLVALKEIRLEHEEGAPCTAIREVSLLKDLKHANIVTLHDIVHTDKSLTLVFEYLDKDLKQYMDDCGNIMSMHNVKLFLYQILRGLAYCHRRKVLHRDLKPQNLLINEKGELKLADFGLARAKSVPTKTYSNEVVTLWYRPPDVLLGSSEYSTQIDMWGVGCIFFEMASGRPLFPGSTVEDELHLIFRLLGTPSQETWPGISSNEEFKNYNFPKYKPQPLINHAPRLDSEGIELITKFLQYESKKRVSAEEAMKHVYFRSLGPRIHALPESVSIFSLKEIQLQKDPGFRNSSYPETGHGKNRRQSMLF
protein kinases (human kinome) (Homo sapiens, UniProt P41240), sequence (P41240 whole entry): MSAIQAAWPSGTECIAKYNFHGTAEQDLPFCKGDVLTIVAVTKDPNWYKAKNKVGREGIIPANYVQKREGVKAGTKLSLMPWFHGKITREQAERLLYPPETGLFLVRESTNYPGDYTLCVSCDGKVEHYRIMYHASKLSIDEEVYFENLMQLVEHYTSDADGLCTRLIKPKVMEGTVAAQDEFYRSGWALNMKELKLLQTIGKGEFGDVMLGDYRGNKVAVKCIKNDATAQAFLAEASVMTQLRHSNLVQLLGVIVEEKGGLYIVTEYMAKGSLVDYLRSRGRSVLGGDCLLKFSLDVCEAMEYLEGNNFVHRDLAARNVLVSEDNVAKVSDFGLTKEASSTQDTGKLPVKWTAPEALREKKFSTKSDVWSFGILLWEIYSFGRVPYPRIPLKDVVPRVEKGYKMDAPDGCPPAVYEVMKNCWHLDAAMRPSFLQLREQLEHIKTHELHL
protein kinases (human kinome) (Homo sapiens, UniProt P45984), sequence (P45984 whole entry): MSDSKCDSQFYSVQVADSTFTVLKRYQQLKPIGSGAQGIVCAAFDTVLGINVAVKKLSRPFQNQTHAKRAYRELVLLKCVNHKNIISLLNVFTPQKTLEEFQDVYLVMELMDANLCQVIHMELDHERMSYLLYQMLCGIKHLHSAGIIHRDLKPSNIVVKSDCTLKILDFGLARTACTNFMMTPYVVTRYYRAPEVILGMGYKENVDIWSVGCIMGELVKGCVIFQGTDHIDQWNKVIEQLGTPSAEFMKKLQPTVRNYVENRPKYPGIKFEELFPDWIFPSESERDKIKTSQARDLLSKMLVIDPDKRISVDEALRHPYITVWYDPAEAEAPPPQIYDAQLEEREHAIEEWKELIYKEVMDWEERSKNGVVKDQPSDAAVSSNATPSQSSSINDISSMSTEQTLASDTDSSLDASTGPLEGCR
protein kinases (human kinome) (Homo sapiens, UniProt P50613), sequence (P50613 whole entry): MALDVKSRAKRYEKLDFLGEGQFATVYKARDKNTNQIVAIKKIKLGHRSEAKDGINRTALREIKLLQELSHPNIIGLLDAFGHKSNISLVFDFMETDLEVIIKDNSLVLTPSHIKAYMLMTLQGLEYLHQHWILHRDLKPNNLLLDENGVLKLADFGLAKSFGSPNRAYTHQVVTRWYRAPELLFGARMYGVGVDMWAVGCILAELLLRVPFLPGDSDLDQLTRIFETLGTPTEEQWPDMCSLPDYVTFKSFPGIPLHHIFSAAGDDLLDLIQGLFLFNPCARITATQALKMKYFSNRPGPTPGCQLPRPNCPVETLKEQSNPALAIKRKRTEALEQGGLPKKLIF
protein kinases (human kinome) (Homo sapiens, UniProt Q9HBH9), sequence (Q9HBH9 whole entry): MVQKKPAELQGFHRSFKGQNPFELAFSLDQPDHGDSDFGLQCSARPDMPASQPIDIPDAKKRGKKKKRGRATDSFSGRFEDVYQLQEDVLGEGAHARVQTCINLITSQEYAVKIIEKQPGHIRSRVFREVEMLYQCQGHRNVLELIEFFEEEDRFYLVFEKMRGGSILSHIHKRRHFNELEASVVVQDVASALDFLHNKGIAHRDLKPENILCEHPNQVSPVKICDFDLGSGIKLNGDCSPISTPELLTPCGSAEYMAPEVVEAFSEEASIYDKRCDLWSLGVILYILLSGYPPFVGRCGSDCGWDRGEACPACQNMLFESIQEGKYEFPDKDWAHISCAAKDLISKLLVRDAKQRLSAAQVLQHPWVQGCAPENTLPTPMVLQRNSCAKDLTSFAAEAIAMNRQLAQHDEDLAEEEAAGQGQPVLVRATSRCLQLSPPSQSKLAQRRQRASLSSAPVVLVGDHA
protein kinases (human kinome) (Homo sapiens, UniProt Q9NYV4), sequence (Q9NYV4 whole entry): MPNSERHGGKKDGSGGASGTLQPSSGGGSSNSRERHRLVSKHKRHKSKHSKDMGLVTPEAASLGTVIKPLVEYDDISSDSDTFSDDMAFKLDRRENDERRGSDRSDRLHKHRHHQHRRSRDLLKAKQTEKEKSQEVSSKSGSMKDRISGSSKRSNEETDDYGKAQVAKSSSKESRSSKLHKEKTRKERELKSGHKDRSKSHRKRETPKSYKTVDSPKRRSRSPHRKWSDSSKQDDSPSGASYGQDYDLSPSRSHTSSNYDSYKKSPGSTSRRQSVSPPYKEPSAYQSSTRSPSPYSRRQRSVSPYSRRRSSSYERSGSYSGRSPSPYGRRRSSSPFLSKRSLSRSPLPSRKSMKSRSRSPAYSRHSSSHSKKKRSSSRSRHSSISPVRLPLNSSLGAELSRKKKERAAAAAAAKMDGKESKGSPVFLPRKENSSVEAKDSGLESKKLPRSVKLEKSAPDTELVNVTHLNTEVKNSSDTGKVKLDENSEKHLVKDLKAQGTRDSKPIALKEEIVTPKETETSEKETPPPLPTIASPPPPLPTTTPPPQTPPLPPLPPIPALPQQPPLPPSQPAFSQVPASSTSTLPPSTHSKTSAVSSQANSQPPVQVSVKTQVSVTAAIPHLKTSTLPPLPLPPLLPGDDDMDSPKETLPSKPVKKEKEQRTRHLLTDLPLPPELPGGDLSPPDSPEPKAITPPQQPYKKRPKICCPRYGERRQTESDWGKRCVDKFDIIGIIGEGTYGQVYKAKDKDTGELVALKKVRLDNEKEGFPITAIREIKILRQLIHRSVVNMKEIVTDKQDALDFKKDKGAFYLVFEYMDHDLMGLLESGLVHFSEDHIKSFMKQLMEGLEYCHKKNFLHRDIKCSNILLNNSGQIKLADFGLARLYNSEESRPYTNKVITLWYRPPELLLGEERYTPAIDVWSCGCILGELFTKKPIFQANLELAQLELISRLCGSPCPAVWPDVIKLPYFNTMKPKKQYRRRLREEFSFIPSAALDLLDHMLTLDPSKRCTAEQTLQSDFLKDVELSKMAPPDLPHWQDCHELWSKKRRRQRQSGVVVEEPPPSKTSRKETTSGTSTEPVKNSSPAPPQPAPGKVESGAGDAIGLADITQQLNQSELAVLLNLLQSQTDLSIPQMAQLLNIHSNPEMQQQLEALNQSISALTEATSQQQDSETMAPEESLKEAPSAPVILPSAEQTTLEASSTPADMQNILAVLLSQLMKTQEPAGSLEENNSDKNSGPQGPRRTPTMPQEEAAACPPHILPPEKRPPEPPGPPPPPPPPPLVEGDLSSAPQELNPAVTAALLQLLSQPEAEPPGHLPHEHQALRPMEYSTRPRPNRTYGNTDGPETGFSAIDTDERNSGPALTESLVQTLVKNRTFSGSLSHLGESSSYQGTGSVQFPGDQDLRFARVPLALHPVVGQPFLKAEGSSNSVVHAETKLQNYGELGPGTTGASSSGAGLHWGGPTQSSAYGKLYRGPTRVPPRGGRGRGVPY

SMILES: Cc1ncsc1-c1ccc([C@H](C)NC(=O)[C@@H]2C[C@@H](O)CN2C(=O)[C@@H](NC(=O)CCOCCOCCN2CCN(c3ccc(Nc4ncc(Cl)c(Nc5ccccc5S(=O)(=O)C(C)C)n4)cc3)CC2)C(C)(C)C)cc1 [FMF.06.098.1]
- logFC [1]: −0.9016 and −1.137 and −0.9756
- logFC CDK7 ([1]; experiment wp108): −0.9016
- logFC CDK7 ([1]; experiment wp114): −1.137
- logFC CDK7 ([1]; experiment wp131): −0.9756
- logFC CDK12 [2, 9]: −0.5732
- logFC CDK12 [2, 10]: −0.5732

SMILES: Cc1ncsc1-c1ccc([C@H](C)NC(=O)[C@@H]2C[C@@H](O)CN2C(=O)[C@@H](NC(=O)CCCCCN2CCN(c3ccc(Nc4ncc5scc(-c6cccc(NS(C)(=O)=O)c6)c5n4)cc3)CC2)C(C)(C)C)cc1 [RSS0680, (2S,4R)-1-((S)-3,3-Dimethyl-2-(6-(4-(4-((7-(3-(methylsulfonamido)phenyl)thieno[3,2-d]pyrimidin-2-yl)amino)phenyl)piperazin-1-yl)hexanamido)butanoyl)-4-hydroxy-N—((S)-1-(4-(4-methylthiazol-5yl)phenyl)ethyl)pyrrolidine-2-carboxamide]
- logFC MKNK2 (Q9HBH9-1) ([3]; Experiment wp080): −0.4987
- logFC MKNK2 (Q9HBH9-1) ([3]; Experiment wp117): −0.5075
- logFC ([3]; experiment wp080): −0.4987
- logFC ([3]; experiment wp117): −0.5075
- logFC [1]: −1.017 and −1.219
- logFC CDK7 ([1]; experiment wp080): −1.017
- logFC CDK7 ([1]; experiment wp117): −1.219
- logFC STK17B (O94768) ([4]; Experiment wp080): −1.375
- logFC STK17B (O94768) ([4]; Experiment wp117): −1.373
- logFC ([4]; experiment wp080): −1.375
- logFC ([4]; experiment wp117): −1.373
- logFC of CDK17 ([5]; experiment wp080): −0.7875
- logFC of CDK17 ([5]; experiment wp117): −0.7193
- logFC CDK17 (Q00537) ([5]; experiment wp080): −0.7875
- logFC CDK17 (Q00537) ([5]; experiment wp117): −0.7193

SMILES: CC(C)S(=O)(=O)c1ccccc1Nc1nc(Nc2ccc(N3CCN(CCOCCNC(=O)CNc4cccc5c4C(=O)N(C4CCC(=O)NC4=O)C5=O)CC3)cc2)ncc1Cl (stereo not shown) [SK.3.91]
- logFC MKNK2 (Q9HBH9-1) ([3]; Experiment wp133, 1 hr): −0.5168
- logFC MKNK2 (Q9HBH9-1) ([3]; Experiment wp133, 2 hr): −0.5303
- logFC MKNK2 (Q9HBH9-1) ([3]; Experiment wp133, 4 hr): −0.8537
- logFC ([3]; experiment wp133, 1 hr): −0.5168
- logFC ([3]; experiment wp133, 2 hr): −0.5303
- logFC ([3]; experiment wp133, 4 hr): −0.8537
- logFC CDK7 ([1]; experiment wp016): −0.5236
- logFC CDK7 ([1]; experiment wp105): −0.6307
- logFC CDK7 ([1]; experiment wp107): −0.4632
- logFC CDK7 ([1]; experiment wp114): −0.5255
- logFC CDK7 ([1]; experiment wp172): −1.186
- logFC CDK12 [2, 11]: −1.134
- logFC CDK12 ([2]; Accession Q9NYV4-1, experiment wp016, 1 uM): −0.9325
- logFC CDK12 ([2]; Accession Q9NYV4-1, experiment wp172): −1.234
- logFC CDK12 [2, 12]: −1.134
- logFC CDK12 ([2]; CDK12 (Q9NYV4-1), experiment wp016, 1 uM): −0.9325
- logFC CDK12 ([2]; CDK12 (Q9NYV4-1), experiment wp172): −1.234
- logFC STK17B (O94768) ([4]; Experiment wp016, 1 uM): −0.327
- logFC STK17B (O94768) ([4]; Experiment wp133, 4 hr): −0.545
- logFC ([4]; experiment wp016, 1 uM): −0.327
- logFC ([4]; experiment wp133, 4 hr): −0.545
- logFC of CSK ([6]; experiment wp016): −0.3254
- logFC of CSK ([6]; experiment wp016, 1 uM): −0.6596
- logFC of CSK ([6]; experiment wp103): −0.4343
- logFC of CSK ([6]; experiment wp105): −0.7044
- logFC of CSK ([6]; experiment wp107): −0.5646
- logFC of CSK ([6]; experiment wp133, 4 hr): −0.5492
- logFC of CSK ([6]; experiment wp160, 4 hr): −0.4976
- logFC of CSK ([6]; experiment wp172): −0.4225
- logFC CSK ([6]; experiment wp016, 1 uM): −0.6596
- logFC CSK ([6]; experiment wp016): −0.3254
- logFC CSK ([6]; experiment wp103): −0.4343
- logFC CSK ([6]; experiment wp105): −0.7044
- logFC CSK ([6]; experiment wp107): −0.5646
- logFC CSK ([6]; experiment wp133, 4 hr): −0.5492
- logFC CSK ([6]; experiment wp160, 4 hr): −0.4976
- logFC CSK ([6]; experiment wp172): −0.4225
- logFC of CDK17 ([5]; experiment wp016): −0.7341
- logFC of CDK17 ([5]; experiment wp016, 1 uM): −0.7503
- logFC of CDK17 ([5]; experiment wp103): −0.6015
- logFC of CDK17 ([5]; experiment wp105): −0.732
- logFC of CDK17 ([5]; experiment wp107): −0.6145
- logFC of CDK17 ([5]; experiment wp133, 2 hr): −0.372
- logFC of CDK17 ([5]; experiment wp133, 4 hr): −0.611
- logFC of CDK17 ([5]; experiment wp160, 4 hr): −0.3952
- logFC of CDK17 ([5]; experiment wp172): −0.7492
- logFC CDK17 (Q00537) ([5]; Experiment wp105): −0.732
- logFC CDK17 (Q00537) ([5]; experiment wp016, 1 uM): −0.7503
- logFC CDK17 (Q00537) ([5]; experiment wp016): −0.7341
- logFC CDK17 (Q00537) ([5]; experiment wp103): −0.6015
- logFC CDK17 (Q00537) ([5]; experiment wp107): −0.6145
- logFC CDK17 (Q00537) ([5]; experiment wp133, 2 hr): −0.372
- logFC CDK17 (Q00537) ([5]; experiment wp133, 4 hr): −0.611
- logFC CDK17 (Q00537) ([5]; experiment wp160, 4 hr): −0.3952
- logFC CDK17 (Q00537) ([5]; experiment wp172): −0.7492

SMILES: CC(C)S(=O)(=O)c1ccccc1Nc1nc(Nc2ccc(N3CCN(CCOCCNC(=O)CNc4ccc5c(c4)C(=O)N(C4CCC(=O)NC4=O)C5=O)CC3)cc2)ncc1Cl (stereo not shown) [SK.3.93]
- logFC [1]: −0.8057
- logFC CDK7 ([1]; experiment wp016): −0.8057
- logFC CDK12 [2, 11]: −0.9555
- logFC CDK12 [2, 12]: −0.9555
- logFC of CDK17 ([5]; experiment wp016): −0.7103
- logFC CDK17 (Q00537) ([5]; experiment wp016): −0.7103

SMILES: CC(C)S(=O)(=O)c1ccccc1Nc1nc(Nc2ccc(N3CCN(CCOCCOCCNC(=O)CNc4cccc5c4C(=O)N(C4CCC(=O)NC4=O)C5=O)CC3)cc2)ncc1Cl (stereo not shown) [TL12.186]
- logFC PDK2 ([7]; Accession Q15119-1): −0.5022
- logFC PDK2 (Q15119-1) [7]: −0.5022
- logFC [1]: −0.7603 and −0.6447 and −0.7438
- logFC CDK7 ([1]; experiment wp016): −0.7603
- logFC CDK7 ([1]; experiment wp131): −0.6447
- logFC CDK7 ([1]; experiment wp137): −0.7438
- logFC CDK12 [2, 11]: −0.9185
- logFC CDK12 [2, 9]: −1.402
- logFC CDK12 [2, 12]: −0.9185
- logFC CDK12 [2, 10]: −1.402
- logFC of CDK17 ([5]; experiment wp016): −0.84
- logFC of CDK17 ([5]; experiment wp131): −0.6165
- logFC CDK17 (Q00537) ([5]; experiment wp016): −0.84
- logFC CDK17 (Q00537) ([5]; experiment wp131): −0.6165

SMILES: NC(=O)c1c(F)cccc1Nc1nc(Nc2ccc(S(=O)(=O)NCCOCCOCCOCCOCCNc3cccc4c3C(=O)N(C3CCC(=O)NC3=O)C4=O)cc2)ncc1Br (stereo not shown) [TMX.02.138]
- logFC [8]: −1.518
- logFC MAPK9 [8]: −1.518
- logFC [1]: −0.5239
- logFC CDK7 ([1]; experiment wp146): −0.5239
- logFC CDK12 [2, 13]: −1.018
- logFC CDK12 [2, 14]: −1.018
- logFC of CDK17 ([5]; experiment wp146): −1.361
- logFC CDK17 (Q00537) ([5]; experiment wp146): −1.361

SMILES: Cc1cc(Nc2ncc(Br)c(Nc3cccc(F)c3C(N)=O)n2)ccc1S(=O)(=O)NCCOCCOCCOCCOCCNc1cccc2c1C(=O)N(C1CCC(=O)NC1=O)C2=O (stereo not shown) [TMX.02.174]
- logFC [8]: −1.031
- logFC MAPK9 [8]: −1.031
- logFC [1]: −0.584
- logFC CDK7 ([1]; experiment wp146): −0.584
- logFC CDK12 [2, 13]: −0.8562
- logFC CDK12 [2, 14]: −0.8562
- logFC of CDK17 ([5]; experiment wp146): −1.42
- logFC CDK17 (Q00537) ([5]; experiment wp146): −1.42
